What is called IC50 is the concentration needed to halve the response being measured.

Active and inactive are the calls of the source. The calls are words filed in the database; no cut-off is given here.

In ChEMBL document CHEMBL6109137, “Design, Synthesis, Evaluation, and SAR of 5-Phenylisoindoline Derivatives, a Potent Class of Small-Molecule Inhibitors Targeting the Programmed Cell Death-1/Programmed Cell Death-Ligand 1 (PD-1/PD-L1) Interaction” (J Med Chem, 2025) one finds IC50, inhibition and Activity data, which are given here for 35 compounds.

Test system in one series: not listed separately
In words: Cytotoxicity against human PBMC cells assessed as inhibition of cell viability by CCK8 assay. Type of series: toxicity, cell-based.
Conditions: not given
In general terms: Formazan colour is commonly taken as a measure of viable cells.
Regarding `O=C([C@@H]1CCCN1)N1Cc2ccc(-c3cccc(-c4ccc5c(c4)OCCO5)c3Cl)cc2C1`, the IC50 was above 5000 nM.

With `Clc1c(-c2ccccc2)cccc1-c1ccc2c(c1)CNC2`, the IC50 is above 5000 nM.

The target of another series is T1, Programmed cell death protein 1/Programmed cell death 1 ligand 1 (Homo sapiens) (UniProt Q15116+Q9NZQ7). In words: Inhibition of PD-1/PD-L1 (unknown origin) interaction in human PBMC cells assessed as increase in IFN-gamma level at 100 nM pretreated with anti-CD3/CD28 and PD-L1 followed by compound addition measured after 72 hrs by ELISA.
Conditions: not given
Type of series: cell-based. (In general: An ELISA detects its analyte on a solid surface through an enzyme-linked reagent.)
For `Clc1c(-c2ccccc2)cccc1-c1ccc2c(c1)CNC2`, the inhibition result is “Active”.

Test system in the next series: not listed separately
In words: Cytotoxicity against human PBMC cells assessed as inhibition of cell viability at 50 to 5000 nM by CCK8 assay. It counts as toxicity, cell-based. As to conditions: 5 µM, dose 50-5000 nM.
Take `Cl.Clc1c(-c2ccc3c(c2)CNC3)cccc1-c1ccc2c(c1)OCCO2`: the Activity entry is “Toxic”.

For the next series, the target named is Programmed cell death protein 1/Programmed cell death 1 ligand 1 (Homo sapiens, UniProt Q9NZQ7). In words: Inhibition of interaction of PD-1/PD-L1 (unknown origin) by HTRF analysis. Type of series: protein-complex assay.
Chain of Programmed cell death protein 1/Programmed cell death 1 ligand 1 (Q15116 whole entry): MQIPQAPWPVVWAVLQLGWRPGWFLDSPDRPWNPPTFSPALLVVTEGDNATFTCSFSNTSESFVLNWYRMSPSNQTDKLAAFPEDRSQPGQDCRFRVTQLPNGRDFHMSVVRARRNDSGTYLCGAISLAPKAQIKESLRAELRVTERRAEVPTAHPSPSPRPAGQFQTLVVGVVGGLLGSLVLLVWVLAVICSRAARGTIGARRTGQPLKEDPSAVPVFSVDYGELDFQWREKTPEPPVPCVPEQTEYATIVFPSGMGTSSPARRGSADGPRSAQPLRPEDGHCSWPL
Chain of Programmed cell death protein 1/Programmed cell death 1 ligand 1 (Q9NZQ7 whole entry): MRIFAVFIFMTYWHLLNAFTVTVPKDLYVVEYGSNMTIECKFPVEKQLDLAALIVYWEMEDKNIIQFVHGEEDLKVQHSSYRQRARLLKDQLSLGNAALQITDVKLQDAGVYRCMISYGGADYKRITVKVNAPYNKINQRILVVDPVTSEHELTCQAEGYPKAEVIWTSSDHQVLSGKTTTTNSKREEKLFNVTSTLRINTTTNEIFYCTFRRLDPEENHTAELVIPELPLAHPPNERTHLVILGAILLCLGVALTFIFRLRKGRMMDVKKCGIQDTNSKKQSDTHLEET
Conditions: not given
(In TR-FRET formats the signal depends on donor and acceptor labels being close together.)
Take `N#Cc1c(-c2ccccc2)cccc1-c1ccc2c(c1)C(=O)NC2=O`: the IC50 was above 10000 nM.

`N#Cc1c(-c2ccc3c(c2)CNC3)cccc1-c1ccc2c(c1)OCCO2` gave an IC50 of 18.5 nM. Compound `Cc1c(-c2ccccc2)cccc1-c1ccc2c(c1)CN(C(=O)CN)C2` registered an IC50 of 293 nM.

In the case of `c1ccc(-c2cccc(-c3ccc4c(c3)CNC4)c2)cc1`, the IC50 is above 10000 nM. On the same count and under the same terms, next, `N#Cc1c(-c2ccccc2)cccc1-c1ccc2c(c1)CNC2`: 47.6 nM; `N#Cc1c(-c2ccccc2)cccc1-c1ccc2c(c1)CN(C(=O)[C@@H]1CCCN1)C2`: 85.7 nM.

In turn, `Cc1c(-c2ccccc2)cccc1-c1ccc2c(c1)CN(C(=O)[C@H]1NCCC1O)C2` (stereo not given in full) came in with an IC50 of 24.2 nM. Still for that read-out and setting: next, `C[C@H](N)C(=O)N1Cc2ccc(-c3cccc(-c4ccc5c(c4)OCCO5)c3C#N)cc2C1`: 24.5 nM. Still for that read-out and setting: for `O=C([C@@H]1CCCN1)N1Cc2ccc(-c3cccc(-c4ccccc4)c3Cl)cc2C1` the value was 17.9 nM.

`O=C([C@@H]1CCCCN1)N1Cc2ccc(-c3cccc(-c4ccccc4)c3Cl)cc2C1` came in with an IC50 of 11.4 nM. On the same count and under the same terms, for `Cc1c(-c2ccc3c(c2)CNC3)cccc1-c1ccc2c(c1)OCCO2` the value was 35.8 nM; for `C[C@H](N)C(=O)N1Cc2ccc(-c3cccc(-c4ccccc4)c3C#N)cc2C1`, 50 nM; for `Cc1c(-c2ccccc2)cccc1-c1ccc2c(c1)CN(C(=O)[C@@H](N)CO)C2`, 94.8 nM. The same measure, in the same setting: for `Clc1c(-c2ccc3c(c2)CNC3)cccc1-c1ccc2nonc2c1` the value was 880 nM; for `N#Cc1c(-c2ccccc2)cccc1-c1ccc2c(c1)CN(C(=O)[C@@H]1CCCCN1)C2`, 64.2 nM. On the same count and under the same terms, for `Cl.Clc1c(-c2ccc3c(c2)CNC3)cccc1-c1ccc2c(c1)OCCO2` the value was 5.9 nM; for `O=C([C@@H]1CCCCN1)N1Cc2ccc(-c3cccc(-c4ccc5c(c4)OCCO5)c3Cl)cc2C1`, 26.2 nM. For `NCC(=O)N1Cc2ccc(-c3cccc(-c4ccccc4)c3Cl)cc2C1`, the IC50 came out at 90.3 nM. For `Cc1c(-c2ccccc2)cccc1-c1ccc2c(c1)C(=O)NC2=O`, the IC50 was above 10000 nM.

As for `Fc1c(-c2ccccc2)cccc1-c1ccc2c(c1)CNC2`, 95.6 nM corresponded to half-maximal inhibition (IC50).

Consider `C[C@H](N)C(=O)N1Cc2ccc(-c3cccc(-c4ccccc4)c3Cl)cc2C1`, for which the IC50 stood at 12.9 nM. Same read-out and setting: next, `Cc1c(-c2ccccc2)cccc1-c1ccc2c(c1)CN(C(=O)[C@@H](N)CC(=O)O)C2`: 142 nM; `COc1c(-c2ccccc2)cccc1-c1ccc2c(c1)CNC2`: 115 nM. The same measure, in the same setting: for `Cc1c(-c2ccccc2)cccc1-c1ccc2c(c1)CN(C(=O)[C@@H]1CCCN1)C2` the value was 7.1 nM. On the same count and under the same terms, for `N#Cc1c(-c2ccccc2)cccc1-c1ccc2c(c1)C(=O)NC2` the value was 1520 nM. `Cc1c(-c2ccccc2)cccc1-c1ccc2c(c1)CN(C(=O)[C@@H]1CCCCN1)C2`: the IC50 amounted to 19.3 nM. The same measure, in the same setting: next, `Oc1c(-c2ccccc2)cccc1-c1ccc2c(c1)CNC2`: above 10000 nM; `O=C([C@@H]1CCCN1)N1Cc2ccc(-c3cccc(-c4ccc5c(c4)OCCO5)c3Cl)cc2C1`: 15.6 nM. Turning to `COC(=O)C[C@H](N)C(=O)N1Cc2ccc(-c3cccc(-c4ccccc4)c3C)cc2C1`, the IC50 is 416 nM.

The compound `Clc1c(-c2ccccc2)cccc1-c1ccc2c(c1)CNC2` yielded a half-maximal inhibitory concentration (IC50) of 9.4 nM. Still for that read-out and setting: next, `Cc1c(-c2ccccc2)cccc1-c1ccc2c(c1)CN(C(=O)[C@@H](N)CCCCN)C2`: 539 nM; `Cc1c(-c2ccccc2)cccc1-c1ccc2c(c1)CN(C(=O)[C@H](C)N)C2`: 30.4 nM. Compound `Cc1c(-c2ccccc2)cccc1-c1ccc2c(c1)CN(C(=O)[C@@H]1C[C@H](O)CN1)C2` showed a 50% inhibitory concentration (IC50) of 84.5 nM. With `Nc1c(-c2ccccc2)cccc1-c1ccc2c(c1)CNC2`, the midpoint of inhibition, the IC50, lay at 194 nM. As for `N#Cc1c(-c2ccccc2)cccc1-c1ccc2c(c1)CNC2=O`, the IC50 is 145 nM.

The target of another series is T1, Programmed cell death protein 1/Programmed cell death 1 ligand 1 (Homo sapiens). In words: Inhibition of PD-1/PD-L1 (unknown origin) interaction in human PBMC cells assessed as increase in IFN-gamma level at 100 to 1000 nM pretreated with anti-CD3/CD28 and PD-L1 followed by compound addition measured after 72 hrs by ELISA. Type of series: cell-based. As to conditions: dose 100-1000 nM.
On to `Cl.Clc1c(-c2ccc3c(c2)CNC3)cccc1-c1ccc2c(c1)OCCO2`, for which the inhibition result was “inactive”.
